# Measurements from PubChem BioAssay (NCI).
#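 Compound exposure: 48 hours, 5 concentrations, 96-well plates. The concentration for 50% growth inhibition is given as GI50. The concentration for full growth arrest is given as TGI.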
# Columns and labels:
# Test in all cases: NCI tumour cell line growth inhibition, 48 h
# HCT-116 colon = system: HCT-116 colon
# A549 NSCLC = system: A549 NSCLC
# UO-31 renal = system: UO-31 renal
# RXF 393 renal = system: RXF 393 renal
# HOP-92 NSCLC = system: HOP-92 NSCLC
# T-47D breast = system: T-47D breast
# HT29 colon = system: HT29 colon
# LOX IMVI melanoma = system: LOX IMVI melanoma
# RPMI-8226 leukemia = system: RPMI-8226 leukemia
# UACC-257 melanoma = system: UACC-257 melanoma
# HCT-15 colon = system: HCT-15 colon
# MALME-3M melanoma = system: MALME-3M melanoma
# NCI/ADR-RES ovarian = system: NCI/ADR-RES ovarian
# K-562 leukemia = system: K-562 leukemia
# EKVX NSCLC = system: EKVX NSCLC
# KM12 colon = system: KM12 colon
# NCI-H460 lung = system: NCI-H460 lung
# HL-60(TB) leukemia = system: HL-60(TB) leukemia
# SW-620 colon = system: SW-620 colon
# OVCAR-5 ovarian = system: OVCAR-5 ovarian
# MOLT-4 leukemia = system: MOLT-4 leukemia
# A498 renal = system: A498 renal
# BT-549 breast = system: BT-549 breast
# 786-0 renal = system: 786-0 renal
# SR leukemia = system: SR leukemia
# M14 melanoma = system: M14 melanoma
# NCI-H23 lung = system: NCI-H23 lung
# SK-MEL-5 melanoma = system: SK-MEL-5 melanoma
# HCC-2998 colon = system: HCC-2998 colon
# SK-MEL-28 melanoma = system: SK-MEL-28 melanoma
# SK-OV-3 ovarian = system: SK-OV-3 ovarian
# TK-10 renal = system: TK-10 renal
# COLO 205 colon = system: COLO 205 colon
# SF-295 CNS = system: SF-295 CNS
# HOP-62 NSCLC = system: HOP-62 NSCLC
# OVCAR-3 ovarian = system: OVCAR-3 ovarian
# PC-3 prostate = system: PC-3 prostate
# DU-145 prostate = system: DU-145 prostate
# UACC-62 melanoma = system: UACC-62 melanoma
# MDA-MB-231 breast = system: MDA-MB-231 breast
# CCRF-CEM leukemia = system: CCRF-CEM leukemia
# OVCAR-8 ovarian = system: OVCAR-8 ovarian
# OVCAR-4 ovarian = system: OVCAR-4 ovarian
# SN12C renal = system: SN12C renal
# CAKI-1 renal = system: CAKI-1 renal
# SF-539 CNS = system: SF-539 CNS
# MCF7 breast = system: MCF7 breast
# MDA-MB-435 = system: MDA-MB-435
# SNB-19 CNS = system: SNB-19 CNS
# ACHN renal = system: ACHN renal
# NCI-H522 lung = system: NCI-H522 lung
# SK-MEL-2 melanoma = system: SK-MEL-2 melanoma
# HS 578T breast = system: HS 578T breast
# NCI-H226 lung = system: NCI-H226 lung
# SNB-75 CNS = system: SNB-75 CNS
# SF-268 CNS = system: SF-268 CNS
# IGROV1 ovarian = system: IGROV1 ovarian
# U251 CNS = system: U251 CNS
smiles,measurement,setting,value
c1ccc2c(-c3cnn4cc(-c5ccc(N6CCNCC6)cc5)cnc34)ccnc2c1,GI50,HCT-116 colon,0.313 µM
same,TGI,HCT-116 colon,1.19 µM
same,GI50,A549 NSCLC,0.766 µM
same,TGI,A549 NSCLC,1.99 µM
same,GI50,UO-31 renal,1.19 µM
same,TGI,UO-31 renal,2.43 µM
same,GI50,RXF 393 renal,1.04 µM
same,TGI,RXF 393 renal,2.45 µM
same,GI50,HOP-92 NSCLC,1.59 µM
same,TGI,HOP-92 NSCLC,3.03 µM
same,GI50,T-47D breast,1.42 µM
same,TGI,T-47D breast,3.2 µM
same,GI50,HT29 colon,0.547 µM
same,TGI,HT29 colon,1.91 µM
same,GI50,LOX IMVI melanoma,1.27 µM
same,TGI,LOX IMVI melanoma,2.58 µM
same,GI50,RPMI-8226 leukemia,0.327 µM
same,TGI,RPMI-8226 leukemia,0.931 µM
same,GI50,UACC-257 melanoma,1.75 µM
same,TGI,UACC-257 melanoma,3.29 µM
same,GI50,HCT-15 colon,0.325 µM
same,TGI,HCT-15 colon,1.45 µM
same,GI50,MALME-3M melanoma,1.34 µM
same,TGI,MALME-3M melanoma,2.92 µM
same,GI50,NCI/ADR-RES ovarian,1.72 µM
same,TGI,NCI/ADR-RES ovarian,3.42 µM
same,GI50,K-562 leukemia,0.226 µM
same,TGI,K-562 leukemia,0.696 µM
same,GI50,EKVX NSCLC,1.89 µM
same,TGI,EKVX NSCLC,3.76 µM
same,GI50,KM12 colon,1.15 µM
same,TGI,KM12 colon,2.39 µM
same,GI50,NCI-H460 lung,0.216 µM
same,TGI,NCI-H460 lung,0.525 µM
same,GI50,HL-60(TB) leukemia,0.461 µM
same,TGI,HL-60(TB) leukemia,0.969 µM
same,GI50,SW-620 colon,0.335 µM
same,TGI,SW-620 colon,1.37 µM
same,GI50,OVCAR-5 ovarian,0.806 µM
same,TGI,OVCAR-5 ovarian,2.24 µM
same,GI50,MOLT-4 leukemia,0.885 µM
same,TGI,MOLT-4 leukemia,2.34 µM
same,GI50,A498 renal,1.43 µM
same,TGI,A498 renal,2.87 µM
same,GI50,BT-549 breast,1.6 µM
same,TGI,BT-549 breast,3.13 µM
same,GI50,786-0 renal,0.527 µM
same,TGI,786-0 renal,1.03 µM
same,GI50,SR leukemia,0.153 µM
same,TGI,SR leukemia,0.562 µM
same,GI50,M14 melanoma,0.297 µM
same,TGI,M14 melanoma,0.962 µM
same,GI50,NCI-H23 lung,1.48 µM
same,TGI,NCI-H23 lung,3.05 µM
same,GI50,SK-MEL-5 melanoma,1.26 µM
same,TGI,SK-MEL-5 melanoma,2.52 µM
same,GI50,HCC-2998 colon,1.36 µM
same,TGI,HCC-2998 colon,2.74 µM
same,GI50,SK-MEL-28 melanoma,0.182 µM
same,TGI,SK-MEL-28 melanoma,0.35 µM
same,GI50,SK-OV-3 ovarian,1.38 µM
same,TGI,SK-OV-3 ovarian,2.71 µM
same,GI50,TK-10 renal,1.76 µM
same,TGI,TK-10 renal,3.2 µM
same,GI50,COLO 205 colon,1.42 µM
same,TGI,COLO 205 colon,2.81 µM
same,GI50,SF-295 CNS,1.13 µM
same,TGI,SF-295 CNS,2.48 µM
same,GI50,HOP-62 NSCLC,0.634 µM
same,TGI,HOP-62 NSCLC,1.24 µM
same,GI50,OVCAR-3 ovarian,1.41 µM
same,TGI,OVCAR-3 ovarian,2.72 µM
same,GI50,PC-3 prostate,0.316 µM
same,TGI,PC-3 prostate,1.52 µM
same,GI50,DU-145 prostate,0.739 µM
same,TGI,DU-145 prostate,2.06 µM
same,GI50,UACC-62 melanoma,1.41 µM
same,TGI,UACC-62 melanoma,2.78 µM
same,GI50,MDA-MB-231 breast,1.48 µM
same,TGI,MDA-MB-231 breast,3.03 µM
same,GI50,CCRF-CEM leukemia,0.196 µM
same,TGI,CCRF-CEM leukemia,0.447 µM
same,GI50,OVCAR-8 ovarian,1.45 µM
same,TGI,OVCAR-8 ovarian,3.05 µM
same,GI50,OVCAR-4 ovarian,1.5 µM
same,TGI,OVCAR-4 ovarian,3.43 µM
same,GI50,SN12C renal,1.22 µM
same,TGI,SN12C renal,2.62 µM
same,GI50,CAKI-1 renal,1.35 µM
same,TGI,CAKI-1 renal,2.77 µM
same,GI50,SF-539 CNS,1.31 µM
same,TGI,SF-539 CNS,2.6 µM
same,GI50,MCF7 breast,0.429 µM
same,TGI,MCF7 breast,1.7 µM
same,GI50,MDA-MB-435,0.556 µM
same,TGI,MDA-MB-435,1.91 µM
same,GI50,SNB-19 CNS,1.25 µM
same,TGI,SNB-19 CNS,2.56 µM
same,GI50,ACHN renal,1.09 µM
same,TGI,ACHN renal,2.29 µM
same,GI50,NCI-H522 lung,1.5 µM
same,TGI,NCI-H522 lung,2.9 µM
same,GI50,SK-MEL-2 melanoma,1.57 µM
same,TGI,SK-MEL-2 melanoma,2.98 µM
same,GI50,HS 578T breast,1.25 µM
same,TGI,HS 578T breast,2.93 µM
same,GI50,NCI-H226 lung,1.65 µM
same,TGI,NCI-H226 lung,3.59 µM
same,GI50,SNB-75 CNS,0.441 µM
same,TGI,SNB-75 CNS,2.12 µM
same,GI50,SF-268 CNS,1.43 µM
same,TGI,SF-268 CNS,2.8 µM
same,GI50,IGROV1 ovarian,0.801 µM
same,TGI,IGROV1 ovarian,2.23 µM
same,GI50,U251 CNS,0.278 µM
same,TGI,U251 CNS,1.08 µM
